Measured values published in patent US11492348B2, “Tri-substituted aryl and heteroaryl derivatives as modulators of PI3-kinase and autophagy pathways” (Neuropore Therapies, Inc., priority 2018, dated 2022).
Counter-ions that a name gives are not always drawn.

Tests used:
PI3Kα = PI3Kα (Homo sapiens (Human), UniProt P42336); assay: Inhibition of PI3Kα (ADP-Glo kinase activity assay, ATP to ADP conversion); assay type: biochemical; conditions: 25 μM PIP2:PS, 60 μM ATP, 30 min reaction, luminescence
Chain of PI3Kα (P42336 whole entry): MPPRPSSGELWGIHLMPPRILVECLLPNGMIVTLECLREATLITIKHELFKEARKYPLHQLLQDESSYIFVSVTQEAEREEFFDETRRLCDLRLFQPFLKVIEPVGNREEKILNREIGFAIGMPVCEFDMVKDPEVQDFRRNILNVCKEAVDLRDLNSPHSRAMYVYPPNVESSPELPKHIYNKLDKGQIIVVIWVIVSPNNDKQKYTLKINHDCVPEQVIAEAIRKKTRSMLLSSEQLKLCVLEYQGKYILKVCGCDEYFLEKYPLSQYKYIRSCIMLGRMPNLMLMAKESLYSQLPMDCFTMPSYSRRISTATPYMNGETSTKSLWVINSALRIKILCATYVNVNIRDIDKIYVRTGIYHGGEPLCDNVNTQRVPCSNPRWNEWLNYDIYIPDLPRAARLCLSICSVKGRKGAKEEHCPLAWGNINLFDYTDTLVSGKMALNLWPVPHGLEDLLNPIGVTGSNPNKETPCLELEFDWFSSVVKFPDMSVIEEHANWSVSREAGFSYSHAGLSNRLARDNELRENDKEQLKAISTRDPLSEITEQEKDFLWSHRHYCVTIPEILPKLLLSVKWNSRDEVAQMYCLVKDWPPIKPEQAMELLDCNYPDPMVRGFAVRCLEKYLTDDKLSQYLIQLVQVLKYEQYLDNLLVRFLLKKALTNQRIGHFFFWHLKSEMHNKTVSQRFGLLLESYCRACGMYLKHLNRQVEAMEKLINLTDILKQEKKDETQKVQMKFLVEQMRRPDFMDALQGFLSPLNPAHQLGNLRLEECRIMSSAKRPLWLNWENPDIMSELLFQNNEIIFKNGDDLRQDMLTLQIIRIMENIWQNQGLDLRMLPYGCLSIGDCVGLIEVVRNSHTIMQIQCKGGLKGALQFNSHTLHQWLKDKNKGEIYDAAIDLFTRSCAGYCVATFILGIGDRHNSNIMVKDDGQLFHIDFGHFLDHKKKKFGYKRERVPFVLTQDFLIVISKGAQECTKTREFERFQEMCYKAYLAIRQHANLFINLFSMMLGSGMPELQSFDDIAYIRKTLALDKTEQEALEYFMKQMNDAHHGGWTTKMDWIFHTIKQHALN
Chain of PI3Kα (P27986 whole entry partner): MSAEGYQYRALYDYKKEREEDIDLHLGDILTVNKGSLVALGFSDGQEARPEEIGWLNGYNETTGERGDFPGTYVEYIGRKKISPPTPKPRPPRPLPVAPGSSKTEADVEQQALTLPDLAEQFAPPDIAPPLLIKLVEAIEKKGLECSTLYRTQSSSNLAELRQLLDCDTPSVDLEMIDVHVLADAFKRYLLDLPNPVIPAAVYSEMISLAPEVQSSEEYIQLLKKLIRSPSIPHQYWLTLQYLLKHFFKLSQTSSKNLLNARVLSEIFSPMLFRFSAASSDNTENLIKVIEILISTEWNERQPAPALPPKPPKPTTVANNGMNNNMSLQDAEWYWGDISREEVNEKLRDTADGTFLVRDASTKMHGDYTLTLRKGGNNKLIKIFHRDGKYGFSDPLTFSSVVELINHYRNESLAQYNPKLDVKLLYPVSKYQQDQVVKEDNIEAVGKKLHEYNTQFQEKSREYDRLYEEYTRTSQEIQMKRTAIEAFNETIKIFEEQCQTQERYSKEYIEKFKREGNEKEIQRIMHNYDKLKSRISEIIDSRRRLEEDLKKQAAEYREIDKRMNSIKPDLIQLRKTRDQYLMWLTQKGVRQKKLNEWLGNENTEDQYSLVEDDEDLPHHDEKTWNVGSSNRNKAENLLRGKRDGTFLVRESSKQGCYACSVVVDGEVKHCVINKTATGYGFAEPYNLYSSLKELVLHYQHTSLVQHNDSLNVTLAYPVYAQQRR
Procedure: Quantification of ATP to ADP conversion as a measure of PI3Kα activity. Active PI3Kα (Life Technologies), in the presence or absence of PI3Kα inhibitor, was reacted with PIP2:PS (Life Technologies), a substrate specifically optimized for use with Class I PI3 kinases, and ultrapure ATP (Promega). The conversion of ATP to ADP by PI3Kα was measured as luminescence signal via Promega ADP-Glo kinase activity assay. Assay was validated using published PI3Kα inhibitors LY294002, PI-103, BYL719, GDC0198 and also DMSO vehicle control.
Compounds were prepared at 100× final concentration as a 12-point, 1:3 serial-dilution in DMSO series, with DMSO control as 12th point. Compound was then diluted in (25 mM HEPES pH 7.5, 1 mM EGTA, 0.3% CHAPS) prior to addition to PI3Kα. Active PI3Kα diluted to 0.24 ng/μL (1.1 nM) in (50 mM HEPES pH 7.5, 6 mM MgCl2, 1 mM EGTA, 200 mM NaCl, 0.03% CHAPS, 8 mM DTT) was incubated with compound for 0 hr and 3 hr prior to the start of the reaction. 25 μM PIP2:PS and 60 μM ATP were diluted from stock in (25 mM HEPES pH 7.5, 1 mM EGTA, 0.3% CHAPS) and added to initiate the PI3Kα reaction. Reaction time was 30 minutes. ATP to ADP conversion was measured in Luminescence Counts on DTX880 Plate Reader (Beckman Coulter). Compound IC50s were reported using GraphPad Prism software. Analytical method was non-linear regression, 4-parameter curve fit with bottom fit to validated PI3Kα inhibitor reference controls and no top fit (floating top).

[1] = test system: (Ser-473) pAKT in B103 (Rat Neuroblastoma) cells; assay: pAKT protocol: loss of (Ser-473) pAKT by AlphaScreen in insulin-stimulated B103 cells; assay type: cell-based; conditions: (Ser-473) pAKT/total AKT IC50, 2-hour pretreatment, 2.5 μg/mL insulin 20 minutes
Procedure: Inhibition of the PI3K-AKT-mTOR pathway was measured by quantifying the loss of (Ser-473) pAKT using AlphaScreen (Perkin Elmer). B103 (Rat Neuroblastoma) cells were seeded in serum containing medium (High Glucose DMEM (-Phenol Red)+10% FBS+2× Glutamax+1 mM Sodium Pyruvate+10 mM HEPES+1× Non-Essential Amino Acids+1× Pen/Strep) on a 96-well tissue culture treated plate and grown for 20 hours. Cells were then serum starved in serum free medium (High Glucose DMEM (-Phenol Red)+1× Glutamax+1 mM Sodium Pyruvate+1× Pen/Strep) for 6 hours prior to a 2-hour pretreatment with inhibitors of the pathway, including reference inhibitor LY294002. These inhibitors were prepared at a 200× final concentration as a 6-point, 1:3 serial dilution in DMSO series, with DMSO as the 7th point. The inhibitors were then diluted in experimental medium (High Glucose DMEM (-Phenol Red)+1× Glutamax+1 mM Sodium Pyruvate+1× Pen/Strep+25 mM HEPES+0.1% BSA) and combined with the cells at 1× final concentration in 0.5% DMSO. […] Cells were promptly lysed using Perkin Elmer proprietary lysis buffer and the (Ser-473) pAKT and total AKT contained in the lysate was measured by AlphaScreen. In AlphaScreen, donor beads were coated with streptavidin to capture one of the antibodies, which is biotinylated. Acceptor beads were coated with Protein A to immobilize the other antibody. In the presence of target protein, the two antibodies bring the donor and acceptor beads close together, generating signal. The amount of light emission is directly proportional to the amount of target protein present in the sample. For each inhibitor tested: the ratio of measured (Ser-473) pAKT/totalAKT was plotted in GraphPad Prism as a 7-point, non-linear regression, 4-parameter curve with bottom constrained to reference control bottom and unconstrained top anchored to DMSO.

PI3Ka IC50 (PI3Kα)	IC50 [1]	Compound
300 nM	5640 nM	CC(C)C(=O)N1CC(S(=O)(=O)c2cc(-c3cnc(N)nc3)cc(N3CCOCC3)c2)C1 [Compound 76, 1-(3-((3-(2-aminopyrimidin-5-yl)-5-morpholinophenyl)sulfonyl)azetidin-1-yl)-2-methylpropan-1-one]
1200 nM	15000 nM	Nc1ncc(-c2cc(N3CCOCC3)cc(S(=O)(=O)c3coc4ccccc34)c2)cn1 [Compound 109, 5-(3-(benzofuran-3-ylsulfonyl)-5-morpholinophenyl)pyrimidin-2-amine]
1200 nM	2180 nM	NCCNc1ncc(-c2cc(N3CCOCC3)cc(S(=O)(=O)Cc3ccc(F)cc3)c2)cn1 [47 (as a HCl salt), N1-(5-(3-((4-fluorobenzyl)sulfonyl)-5-morpholinophenyl)pyrimidin-2-yl)ethane-1,2-diamine]
470 nM	3710 nM	Nc1ncc(-c2cc(N3CCOCC3)cc(S(=O)(=O)Cc3ccc4[nH]cnc4c3)c2)cn1 [Compound 63, 5-(3-(((1H-benzo[d]imidazol-5-yl)methyl)sulfonyl)-5-morpholinophenyl)pyrimidin-2-amine]
120 nM	310 nM	Nc1ncc(-c2cc(N3CCCc4ccccc43)cc(N3CCOCC3)n2)cn1 [Compound 140, 5-(4-(3,4-Dihydroquinolin-1(2H)-yl)-6-morpholinopyridin-2-yl)pyrimidin-2-amine]
–	41300 nM	Nc1ncc(-c2cc(N3CCOCC3)cc(S(=O)(=O)Cc3ccc(N4CCOCC4)cc3)c2)cn1 [Compound 58, 5-(3-morpholino-5-((4-morpholinobenzyl)sulfonyl)phenyl) pyrimidin-2-amine]
800 nM	–	CC(C)(C)OC(=O)N1CCC(N2CC(S(=O)(=O)c3cc(-c4cnc(N)nc4)cc(N4CCOCC4)c3)C2)CC1 [Compound 67, tert-butyl 4-(3-((3-(2-aminopyrimidin-5-yl)-5-morpholinophenyl)sulfonyl)azetidin-1-yl)piperidine-1-carboxylate]
1500 nM	–	Nc1ncc(-c2cc(N3CCOCC3)cc(S(=O)(=O)c3ccc4ccccc4c3)c2)cn1 [Compound 9, 5-(3-morpholino-5-(naphthalen-2-ylsulfonyl)phenyl)pyrimidin-2-amine]
2000 nM	–	Nc1ncc(-c2cc(N3CCOCC3)cc(S(=O)(=O)c3ccccc3)c2)c(C(F)(F)F)n1 [Compound 3, 5-(3-morpholino-5-(phenylsulfonyl)phenyl)-4-(trifluoromethyl)pyrimidin-2-amine]
2000 nM	–	CC(C)(O)CNc1ccc(S(=O)(=O)c2cc(-c3cnc(N)nc3)cc(N3CCOCC3)c2)cc1 [Compound 37, 1-((4-((3-(2-aminopyrimidin-5-yl)-5-morpholinophenyl)sulfonyl)phenyl)amino)-2-methylpropan-2-ol]
450 nM	–	CC1CN(c2cc(S(=O)(=O)c3ccccc3)cc(-c3cnc(N)nc3)n2)CC(C)O1 (stereo not drawn) [Compound 150, 5-(6-(2,6-dimethylmorpholino)-4-(phenylsulfonyl)pyridin-2-yl)pyrimidin-2-amine]
660 nM	–	CNc1ncc(-c2cc(N3CCOCC3)cc(S(=O)(=O)Cc3ccccc3)c2)cn1 [Compound 31, 5-(3-(benzylsulfonyl)-5-morpholinophenyl)-N-methylpyrimidin-2-amine]
830 nM	–	Nc1ncc(-c2cc(S(=O)(=O)c3ccccc3)cc(N3CC4CCC(C3)O4)n2)cn1 [Compound 151, 5-(6-(8-oxa-3-azabicyclo[3.2.1]octan-3-yl)-4-(phenylsulfonyl)pyridin-2-yl)pyrimidin-2-amine]
500 nM	–	Nc1ncc(-c2cc(N3CCOCC3)cc(S(=O)(=O)C3CNC3)c2)cn1 [Compound 61, 5-(3-(azetidin-3-ylsulfonyl)-5-morpholinophenyl)pyrimidin-2-amine]
6.8 nM	–	Nc1ncc(-c2cc(S(=O)(=O)[C@@H]3CCOC3)cc(N3CCOCC3)n2)cn1 [Compound 142b, (R)-5-(6-morpholino-4-((tetrahydrofuran-3-yl)sulfonyl)pyridin-2-yl)pyrimidin-2-amine]
12000 nM	–	COc1cncc(-c2cc(N3CCOCC3)cc(S(=O)(=O)Cc3ccc(F)cc3)c2)c1 [Compound 55, 4-(3-((4-fluorobenzyl)sulfonyl)-5-(5-methoxypyridin-3-yl)phenyl)morpholine]
7300 nM	–	Nc1ncc(-c2cc(N3CCOCC3)cc(S(=O)(=O)c3ccc(C(F)(F)F)cc3)c2)cn1 [Compound 14, 5-(3-morpholino-5-((4-(trifluoromethyl)phenyl)sulfonyl)phenyl) pyrimidin-2-amine]
13 nM	–	Nc1ncc(-c2cc(S(=O)(=O)C3CCOCC3)cc(N3CCOCC3)n2)cn1 [Compound 148, 5-(6-morpholino-4-((tetrahydro-2H-pyran-4-yl)sulfonyl)pyridin-2-yl)pyrimidin-2-amine]
2500 nM	–	CC(C)N1CCC(S(=O)(=O)c2cc(-c3cnc(N)nc3)cc(N3CCOCC3)c2)C1.Cl (stereo not drawn) [Compound 89, 5-(3-((1-isopropylpyrrolidin-3-yl)sulfonyl)-5-morpholinophenyl)pyrimidin-2-amine hydrochloride]
5900 nM	–	O=S(=O)(Cc1ccc(F)cc1)c1cc(-c2ccc3c(c2)OCCN3)cc(N2CCOCC2)c1 [Compound 45, 7-(3-((4-fluorobenzyl)sulfonyl)-5-morpholinophenyl)-3,4-dihydro-2H-benzo[b][1,4]oxazine]
980 nM	–	Nc1ncc(-c2cc(N3CCOCC3)cc(S(=O)(=O)Cc3ccccc3)c2)c(C(F)(F)F)n1 [Compound 33, 5-(3-(benzylsulfonyl)-5-morpholinophenyl)-4-(trifluoromethyl)pyrimidin-2-amine]
13000 nM	–	Cc1cn2cc(-c3cc(N4CCOCC4)cc(S(=O)(=O)Cc4ccccc4)c3)cnc2n1 [Compound 34, 4-(3-(benzylsulfonyl)-5-(2-methylimidazo[1,2-a]pyrimidin-6-yl)phenyl)morpholine]
19000 nM	–	O=S(=O)(Cc1ccc(F)cc1)c1cc(-c2cccc(OC(F)(F)F)c2)cc(N2CCOCC2)c1 [Compound 46, 4-(5-((4-fluorobenzyl)sulfonyl)-3′-(trifluoromethoxy)-[1,1′-biphenyl]-3-yl)morpholine]
11000 nM	–	COc1ccc(-c2cc(N3CCOCC3)cc(S(=O)(=O)Cc3ccc(F)cc3)c2)cc1N [Compound 43, 3′-((4-fluorobenzyl)sulfonyl)-4-methoxy-5′-morpholino-[1,1′-biphenyl]-3-amine]
4300 nM	–	Cc1cc(N)nnc1-c1cc(N2CCOCC2)cc(S(=O)(=O)Cc2ccc(F)cc2F)c1 [Compound 99, 6-(3-((2,4-difluorobenzyl)sulfonyl)-5-morpholinophenyl)-5-methylpyridazin-3-amine]
370 nM	–	O=S(=O)(c1ccccc1)c1cc(-c2cnc(NC3CC3)nc2)nc(N2CCOCC2)c1 [Compound 146, N-cyclopropyl-5-(6-morpholino-4-(phenylsulfonyl)pyridin-2-yl)pyrimidin-2-amine]
580 nM	–	CC(C)(C)C(=O)N1CC(S(=O)(=O)c2cc(-c3cnc(N)nc3)cc(N3CCOCC3)c2)C1 [Compound 86, 1-(3-((3-(2-aminopyrimidin-5-yl)-5-morpholinophenyl)sulfonyl)azetidin-1-yl)-2,2-dimethylpropan-1-one]
1000 nM	–	Nc1cnc(-c2cc(N3CCOCC3)cc(S(=O)(=O)C3CCOC3)c2)cn1 (stereo not drawn) [Compound 74, 5-(3-morpholino-5-((tetrahydrofuran-3-yl)sulfonyl)phenyl)pyrazin-2-amine]
